Nine molecules from patent US10160729B2, “Hsp70 modulators and methods for making and using the same” (Memorial Sloan Kettering Cancer Center, priority 2014, dated 2018) can be followed below.

Assay [1] concerns diffuse large B-cell lymphoma (DLBCL) cells. Kind of assay: Growth inhibition (CellTiter-Glo) in DLBCL cells, including cells with induced resistance to PU-H71. In kind it is cell-based, human. The settings on record: for Spectrum of sensitive DLBCLs: FIG. 1C, PU-H71-sensitive versus compound 32-sensitive DLBCL lines. The text has this: (§1) Cell lines: MDA-MB-468 cells were obtained from the American Type Culture Collection. DLBCL cells were described in Cerchietti L C, et al. BCL6 repression of EP300 in human diffuse large B cell lymphoma cells provides a basis for rational combinatorial therapy. J Clin Invest. Dec. 1, 2010; 120(12): 4569-4582; and Cerchietti L C, et al. A purine scaffold Hsp90 inhibitor destabilizes BCL-6 and has specific antitumor activity in BCL-6-dependent B cell lymphomas. Nat Med. 2009 December; 15(12):1369-76. MDA-MB-468 cells were grown in DME/F12 with 10% FBS and 1% penicillin and streptomycin. OCI-LY1R cells were developed by continuous incubation of OCI-LY1 cells with suboptimal concentrations of PU-H71 (depicted below) with subsequent selection of resistant clones. OCI-LY1, OCI-LY1R and OCI-LY7 cells were cultured in IMDM supplemented with 20% FBS, 1% glutamax and 1% penicillin and streptomycin. OCI-LY3, FARAGE, HBL1, Karpas422, MD901, U2932, SU-DHL4, SU-DHL6, RCK8 and TMD8 cells were grown in RPMI with 10% FBS, 1% glutamax and 1% penicillin and streptomycin.
Growth inhibition: 5,000 cells per well were plated in black 96-well microtiter plates and treated next day with indicated compounds at 1/2 serial dilutions. The plate was incubated for 72h after which growth was measured using the CellTiter-Glo Luminescent Cell Viability Assay (Promega) according to manufacture's instructions. The percentage cell growth inhibition was calculated by comparing luminescence readings obtained from treated versus control cells, accounting for initial cell population. The luminescence signal in each well was measured using the Analyst GT microplate reader (Molecular Devices).
(ATP-based viability assays read luminescence as a measure of living cells.)

For another assay, the system named is MOLM-13 cells. Kind of assay: Caspase cleavage assay (Caspase3, 7 activation). Format: cell-based. The note with it: Homo sapiens, 16 h treatment, caspase substrate Z-DEVD-R110, read-out: c* Concentration at which 50% of the maximum signal was achieved (caspase activation). In short, it runs like this: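 Cells (30,000/well, RPMI) treated 16 h with compound or DMSO in triplicate, then given buffer with 10 mM HEPES pH 7.5, 2 mM EDTA, 0.1% CHAPS and 25 μM Z-DEVD-R110. Fluorescence read once signal stabilized; results given as percentage increase in apoptotic cells versus DMSO-treated control.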

In assay [2] the test system is MDA-MB-468 triple negative breast cancer cells. Kind of assay: Western blot of anti-apoptotic protein complexes. In kind it is cell-based. The note with it: FIG. 1A, MDA-MB-468 cells, 24 h.
Description: as §1
Western blot: Cells were plated and treated next day with indicated drug concentrations for 24h. […] The chemiluminescent signal was detected using the Enhanced Chemiluminescence Detection System (Amersham Biosciences) according to the manufacturer's instructions.

Take `CC(C)NCCCn1c(Sc2cc3c(cc2I)OCO3)nc2c(N)ncnc21` [PU-H71, reference compound]: the “Spectrum of sensitive DLBCLs” value in assay [1] is listed as “does not overlap”. Consider `CN1CCN(c2ncc(Sc3ccc(N)nc3)c(OCc3ccccc3)n2)CC1` [compound 32, 5-((4-(Benzyloxy)-2-(4-methylpiperazin-1-yl)pyrimidin-5-yl)thio)pyridin-2-amine], for which the EC50 in the assay with MOLM-13 cells lay within 200 to 400 nM. In addition, the “Activity in DLBCL cells with induced resistance to PU-H71” value in assay [1] (FIG. 1B, DLBCL cells with induced resistance to Hsp90 inhibitor PU-H71) is given as “retains activity”. Also, the “Spectrum of sensitive DLBCLs” value in assay [1] is “does not overlap”. The “Effect on Hsp70-regulated anti-apoptotic protein complexes” value in assay [2] is given as “effects reverted”. For `CN(C)[C@@H]1CCN(c2ncc(Sc3ccc(C(N)=O)cc3)c(OCc3cccc(F)c3)n2)C1` [compound 363, (R)-4-((2-(3-(Dimethylamino)pyrrolidin-1-yl)-4-((3-fluorobenzyl)oxy)pyrimidin-5-yl)thio)benzamide], in the assay with MOLM-13 cells, the EC50 fell in the range of 200 to 400 nM. Consider `CN(C)[C@@H]1CCN(c2ncc(Sc3ccc(C(N)=O)cc3)c(OCc3cccc(Cl)c3)n2)C1` [compound 365, (R)-4-((4-((3-Chlorobenzyl)oxy)-2-(3-(dimethylamino)pyrrolidin-1-yl)pyrimidin-5-yl)thio)benzamide], for which the EC50 in the assay on MOLM-13 cells is 200 to 400 nM.

`CN(C)[C@@H]1CCN(c2ncc(Sc3ccc(C(N)=O)cc3)c(OCc3cccc(Br)c3)n2)C1` [compound 367, (R)-4-((4-((3-Bromobenzyl)oxy)-2-(3-(dimethylamino)pyrrolidin-1-yl)pyrimidin-5-yl)thio)benzamide]: in the assay on MOLM-13 cells, the EC50 fell in the range of 200 to 400 nM.

For the molecule `CN(C)[C@@H]1CCN(c2ncc(Sc3ccc(C(N)=O)cc3)c(OCc3cccc(I)c3)n2)C1` [compound 369, (R)-4-((2-(3-(Dimethylamino)pyrrolidin-1-yl)-4-((3-iodobenzyl)oxy)pyrimidin-5-yl)thio)benzamide], the EC50 in the assay with MOLM-13 cells was in the range of 200 to 400 nM.

For `COc1cccc(COc2nc(N3CC[C@@H](N(C)C)C3)ncc2Sc2ccc(N)nc2)c1` [compound 375, (R)-5-((2-(3-(Dimethylamino)pyrrolidin-1-yl)-4-((3-methoxybenzyl)oxy)pyrimidin-5-yl)thio)pyridin-2-amine], in the assay on MOLM-13 cells, the EC50 is below 200 nM. On the same count and under the same terms, for `CN(C)[C@@H]1CCN(c2ncc(Sc3ccc(N)nc3)c(OCc3cccc(Cl)c3)n2)C1` [compound 376, (R)-5-((4-((3-Chlorobenzyl)oxy)-2-(3-(dimethylamino)pyrrolidin-1-yl)pyrimidin-5-yl)thio)pyridin-2-amine] the value was below 200 nM. In the case of `NC(=O)c1ccc(Sc2cnc(N3CCN(CC#CCO)CC3)nc2OCc2cccc(Cl)c2)cc1` [compound 379, 4-((4-((3-Chlorobenzyl)oxy)-2-(4-(4-hydroxybut-2-yn-1-yl)piperazin-1-yl)pyrimidin-5-yl)thio)benzamide], in the assay on MOLM-13 cells, the EC50 is below 200 nM.
